# Numbering of substitutions follows the chain as printed. Read-outs that look alike come from different tables or passages of the source.
# What was measured:
# Assay in all cases: [3H]glycine transport by GlyT2 mutant in COS7 cells
# Type in all cases: cell-based
# [1] = biological target: T1, GlyT2 S640C mutant (Rattus norvegicus, UniProt P58295, S640C); conditions: read-out: IC50 (Table S1)
# T1 construct: expressed in transfected cells; host or cells: COS7
# T1 sequence (P58295 1-799 S640C): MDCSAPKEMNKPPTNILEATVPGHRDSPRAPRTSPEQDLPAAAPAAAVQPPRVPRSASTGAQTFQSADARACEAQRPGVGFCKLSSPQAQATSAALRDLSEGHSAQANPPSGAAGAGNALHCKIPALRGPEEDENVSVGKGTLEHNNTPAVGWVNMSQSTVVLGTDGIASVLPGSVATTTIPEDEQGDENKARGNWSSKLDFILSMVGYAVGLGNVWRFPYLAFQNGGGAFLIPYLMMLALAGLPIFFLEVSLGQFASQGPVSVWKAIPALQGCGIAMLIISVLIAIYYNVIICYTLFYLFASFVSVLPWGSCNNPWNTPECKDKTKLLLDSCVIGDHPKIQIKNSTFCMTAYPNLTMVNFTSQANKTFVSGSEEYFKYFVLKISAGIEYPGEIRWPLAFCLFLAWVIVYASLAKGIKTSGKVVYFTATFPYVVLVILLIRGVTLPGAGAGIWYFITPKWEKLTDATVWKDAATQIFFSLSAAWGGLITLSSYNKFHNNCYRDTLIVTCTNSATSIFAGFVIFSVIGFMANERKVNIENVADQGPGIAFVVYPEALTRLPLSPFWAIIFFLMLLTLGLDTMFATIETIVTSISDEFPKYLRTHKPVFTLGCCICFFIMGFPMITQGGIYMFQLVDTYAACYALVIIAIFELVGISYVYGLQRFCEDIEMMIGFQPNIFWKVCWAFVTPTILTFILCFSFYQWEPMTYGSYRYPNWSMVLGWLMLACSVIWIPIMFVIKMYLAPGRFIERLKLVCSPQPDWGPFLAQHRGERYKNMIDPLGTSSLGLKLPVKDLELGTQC
# Description: (§1) To validate the predicted interactions between the inhibitors and GlyT2, we used systematic site-directed mutagenesis to construct substitution mutants of the potential residues involved in ligand binding. […] The GlyT2 residues predicted to interact with the inhibitors through its side chain were replaced by amino acids expected to force the loss of the interaction. In the cases where the interaction occurred through the backbone, the inserted amino acid sought to alter the disposition of the substituted residue to lose the coordination.
# (§2) Substitution mutants were generated with the QuikChange II Site-Directed Mutagenesis kit (Agilent Technologies, Santa Clara, CA, USA), using rGlyT2 or rGlyT1 subcloned in pCDNA3.[47] The complete coding region of all of the constructs was sequenced to verify that only the desired mutation had been introduced. […] COS7 cells were grown and transfected using Turbofect Transfection Reagent (Thermo Fisher Scientific, Waltham, MA, USA), following the manufacturer’s protocol (2 μL reagent/μg of DNA). Cells were incubated for 48 h at 37 °C until used.
# (§3) At the end of the desired time (usually 10 min), reactions were washed and terminated by aspiration. […] A nonlinear curve fitting method was used to obtain IC50 values using Graphpad Prism software, version 6.0, Graphpad, San Diego, CA, USA.
# [2] = biological target: T2, GlyT2 I292C mutant (Rattus norvegicus, UniProt P58295, I292C)
# T2 construct: expressed in transfected cells; host or cells: COS7
# T2 sequence (P58295 1-799 I292C): T1 sequence (P58295 1-799 S640C) with I292C, C640S
# Description: as §1, §2, §3
# [3] = biological target: T3, GlyT2 A639C mutant (Rattus norvegicus, UniProt P58295, A639C)
# T3 construct: expressed in transfected cells; host or cells: COS7
# T3 sequence (P58295 1-799 A639C): T1 sequence (P58295 1-799 S640C) with A639C, C640S
# Description: as §1, §2, §3
IC50 ([2]; read-out: IC50 (Table S1)) [nM],IC50 ([3]; read-out: IC50 (Table S1)) [nM],SMILES,IC50 [1] [nM],IC50 [2] [nM],IC50 [3] [nM]
36 ± 4,22 ± 4,N[C@@H](COC(c1cccc(F)c1)c1ccccc1OCc1ccccc1)C(=O)O (stereo partly drawn) [ALX1393],30 ± 7,,
,,"COc1cc(C(=O)NCC2(N(C)C)CCCC2)cc(OC)c1OCc1ccccc1 [ORG25543, N-[[1-(dimethylamino)cyclopentyl]methyl]-3,5-dimethoxy-4-(phenylmethoxy)benzamide]",130 ± 6,24 ± 3,51 ± 2

# Source: PMC8691691 (ACS Chemical Neuroscience, 2021)
